Tested on: TFEB
Test: TFEB nuclear translocation assay, HeLa wt cells
Type: cell-based
Details: 2 hrs compound treatment, Table 1 does not say HeLa wt or TRPML1 KO
How it was run: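 Cells are plated overnight, exposed to compounds for 2 hrs at 37° C, fixed with 4% PFA, blocked, and stained overnight at 4° C with rabbit anti-TFEB. After Alexa 488 secondary and Hoechst, nuclei and a perinuclear ring are segmented to give a nuclear:ring intensity ratio and AC50.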

| SMILES | AC50 (Homo sapiens, HeLa, 2 h) | AC50 |
| --- | --- | --- |
| CN(C)S(=O)(=O)c1ccc(S(=O)(=O)c2ccccc2N2CCC(c3ccc(Cl)cc3F)CC2)cc1 [Compound A-156, 4-((2-(4-(4-chloro-2-fluorophenyl)piperidin-1-yl)phenyl)sulfonyl)-N,N-dimethylbenzenesulfonamide] | 2010 to 8000 nM |  |
| COCC1(C)CCN(c2ccccc2NS(=O)(=O)Cc2ccc3c(c2)COCC3)CC1 [Compound A-571, 1-(3,4-dihydro-1H-2-benzopyran-7-yl)-N-{2-[4-(methoxymethyl)-4-methylpiperidin-1-yl]phenyl}methanesulfonamide] | 2010 to 8000 nM |  |
| COc1cccc(S(=O)(=O)Nc2cccc(Cl)c2N2CCOCC2)c1 [Compound A-367, N-[3-chloro-2-(morpholin-4-yl)phenyl]-3-methoxybenzene-1-sulfonamide] | 2010 to 8000 nM |  |
| CC(N1CCN(c2ccccc2NS(=O)(=O)Cc2ccccc2)CC1)C(F)(F)F (stereo not shown) [Compound A-542, 1-phenyl-N-{2-[4-(1,1,1-trifluoropropan-2-yl)piperazin-1-yl]phenyl}methanesulfonamide] | ≤ 2000 nM |  |
| CC(c1cccc(F)c1N1CCC(CN2C[C@@H](C)C(F)(F)[C@@H](C)C2)CC1)S(=O)(=O)c1ccc(S(=O)(=O)N(C)C)cc1 (stereo partly drawn) [Compound A-970, 4-{1-[2-(4-{[(3R,5S)-4,4-difluoro-3,5-dimethylpiperidin-1-yl]methyl}piperidin-1-yl)-3-fluorophenyl]ethanesulfonyl}-N,N-dimethylbenzene-1-sulfonamide] | ≤ 2000 nM |  |
| CC1(C)CC2(CCN(c3ccccc3NS(=O)(=O)Cc3cccc(F)c3)CC2)CO1 [Compound A-668, N-(2-{3,3-dimethyl-2-oxa-8-azaspiro[4.5]decan-8-yl}phenyl)-1-(3-fluorophenyl)methanesulfonamide] | 2010 to 8000 nM |  |
| Cc1ccc(S(=O)(=O)C(C)c2cccc(F)c2N2CCC(CN3C4CCC3COC4)CC2)cc1 (single isomer, unassigned) [Compound A-924, 8-((1-(2-fluoro-6-(1-tosylethyl)phenyl)piperidin-4-yl)methyl)-3-oxa-8-azabicyclo[3.2.1]octane] |  | ≤ 2000 nM |
| CC(c1cc(Cl)cnc1N1CCC(CN2CCC(F)(F)CC2)CC1)S(=O)(=O)c1ccc2c(c1)CCC2 (single isomer, unassigned) [Compound A-994, 5-chloro-2-(4-((4,4-difluoropiperidin-1-yl)methyl)piperidin-1-yl)-3-(1-((2,3-dihydro-1H-inden-5-yl)sulfonyl)ethyl)pyridine] |  | ≤ 2000 nM |
| COCCOCCOCC1(C)CCN(c2ccccc2NS(=O)(=O)c2ccc(S(=O)(=O)N(C)C)cc2)CC1 [Compound A-519, N4-[2-(4-{[2-(2-methoxyethoxy)ethoxy]methyl}-4-methylpiperidin-1-yl)phenyl]-N1,N1-dimethylbenzene-1,4-disulfonamide] | ≤ 2000 nM |  |
| CN(C)S(=O)(=O)c1ccc(S(=O)(=O)Nc2ccccc2N2CCN(C(=O)C(C)(F)F)CC2)cc1 [Compound A-446, N4-{2-[4-(2,2-difluoropropanoyl)piperazin-1-yl]phenyl}-N1,N1-dimethylbenzene-1,4-disulfonamide] | 2010 to 8000 nM |  |
| CC(C)OC(=O)N1CCN(c2ccccc2NS(=O)(=O)c2ccc(S(=O)(=O)N(C)C)cc2)CC1 [Compound A-336, propan-2-yl 4-{2-[4-(dimethylsulfamoyl)benzenesulfonamido]phenyl}piperazine-1-carboxylate] | ≤ 2000 nM |  |
| CC(c1cccc(C#N)c1N1CCC(CN2C[C@@H](C)O[C@@H](C)C2)CC1)S(=O)(=O)c1ccc(S(=O)(=O)N(C)C)cc1 (stereo partly shown) [Compound A-842, 4-((1-(3-cyano-2-(4-((2,6-dimethylmorpholino)methyl)piperidin-1-yl)phenyl)ethyl)sulfonyl)-N,N-dimethylbenzenesulfonamide] | ≤ 2000 nM |  |
| C[C@@H](c1cccc(F)c1N1CCCCC1)S(=O)(=O)c1ccc(S(=N)(=O)N(C)C)cc1 (single isomer, unassigned) [Compound A-930] |  | 2010 to 8000 nM |
